Reference: patent US6974804B2, “Esters” (Unilever Home & Personal Care USA, division of Conopco, Inc., priority 2000, dated 2005)

Key:
Type in all cases: physicochemical
[1] = Light transmission at 580 nm (% T); conditions: for Clarity % T: 9% REF2 and 1% of the specified ester in 60:40 hydrogenated polydecene:DC245, 580 nm
Procedure: The translucency of a composition may be measured by placing a sample of standardised thickness in the light path of a spectrophotometer and measuring transmittance, as a percentage of light transmitted in the absence of the gel.
This test was carried out using a dual-beam spectrophotometer. The sample of composition was poured hot into a 4.5 ml cuvette made of poly(methyl-methacrylate) (PMMA) and allowed to cool to an ambient temperature of 20-25° C. Such a cuvette gives a 1 cm thickness of composition. […] A transmittence measured at any temperature in the range from 20-25° C. is usually adequately accurate, but measurement is made at 22° C. if more precision is required.

[2] = Visual assessment score (clarity of gel in 1 cm cuvette); conditions: for Clarity Visual (assessment score): 9% REF2 and 1% of the specified ester in 60:40 hydrogenated polydecene:DC245, scale −12 to 8; for Clarity Visual (appearance): 60:40 hydrogenated polydecene:DC245 gelled with 9% REF2 and 1% of the specified cellobiose ester
Description: A gel contained within a 1 cm thick cuvette was placed directly on to a sheet of white paper on which 21 sets of figures where printed in black. The size and thickness of the figures varied systematically and were numbered from −12 (the largest, thickest set) through 0 to 8 (the smallest thinnest set) The score given to each gel was the highest numbered set which could be read clearly through the gel, the higher the number, the higher the clarity.

[3] = DSC of gels: fibre dissolution temperature (FDT) and solubility of structurant; conditions: for Solubility of structurant at 25° C.: from DSC of gel, relative to benchmark REF 2; for FDT: gel heated at 5 K/min in DSC, peak temperature of the highest peak
Procedure: In this Example the Fibre dissolution temperature (FDT) is measured in the DSC process described later herein, by observing when the fibres dissolve whilst the temperature of sample rises. FDT is taken to be the peak temperature of the highest peak.
In REF2 and REF3, the acyl substituents at the other seven cellobiose sites are nonanoyl.
Samples of gel (about 20 mg) were sealed in stainless steel capsules for DSC. An empty stainless steel capsule was used as the physical reference. The samples were subjected to the following temperature programme:
The sample was heated to 100° C. and held at 100° C. for 1 minute, in order to obtain an isotropic solution. The sample was then cooled at 5 K/min to −20° C. The sample was held at −20° C. for 1 minute. The sample is now a gel on the bottom of the sample capsule prepared in a reproducible manner. The gel was then heated at 5 K/min to 100° C. Data was also obtained with empty stainless steel pans as both physical sample and reference. This blank data was later subtracted from the sample data to remove any curvature in the base line.

[4] = Gelling of water-immiscible cosmetic liquids in 96 well glass micro-titre plate; set-up: key: gel; g4: gel after overnight (18 hrs) storage at 4° C.; g22: gel after overnight (18 hrs) storage at 22° C.; sg: soft gel; sg22: soft gel after overnight (18 hrs) storage at 22° C.; solution; *: the test at 4° C. was not carried out; conditions: for gelling of ISA: 150° C. 2.5 hours, cooled to ambient
How it was run: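 Gel formation was scored by eye and by poking with a micro-spatula at three points: on cooling to room temperature, after 18 h at 18 °C, and after another 18 h at 4 °C. Before this, mixtures of cosmetic liquid with roughly 5% or 10% cellobiose ester were heated at 150 °C for 2.5 h.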

[5] = Stability testing of gels: crystal growth visible by eye on storage at 37° C.; conditions: for Observations: 9% of REF1 and 1% of additional structurant
Procedure: Gels were made up using 10% structurant in a 60:40 mixture of Hydrogenated Polyisobutene (Panalene L14E):DC245. The gels, in sealed glass bottles, were left to stand for 18 hrs at room temperature, after which they were transferred to an oven thermostatically controlled to 37° C. Samples were checked periodically for signs of crystal growth visible by eye. REF1 is cellobiose octanonanoate.
Gels were made up and tested in accordance with the procedure in Example 6, as such or modified by employing a weight ratio of 9% of REF1 and 1% of an additional structurant as specified in Table 13 below.
The test procedure of Example 9 was repeated, but using ACB structurant REF2 alone as the structurant or to which a CHME structurant was added.

[6] = 5% cellobiose ester in Finsolv TN
[7] = 5% cellobiose ester in Fluid AP
[8] = 5% cellobiose ester in Mineral oil
[9] = 5% cellobiose ester in Polydecene
[10] = 10% cellobiose ester in Finsolv TN
[11] = 10% cellobiose ester in Fluid AP
[12] = 10% cellobiose ester in Mineral oil
[13] = 10% cellobiose ester in Polydecene
[14] = REF2 to which the CHME structurant was added, after 12 days at 37° C.
[15] = 10% structurant in 60:40 Panalene L14E:DC245, after 17 days at 37° C.

SMILES	Clarity % T [1]	Clarity Visual (assessment score) [2]	Clarity Visual (appearance) [2]	Solubility of structurant at 25° C. [3]	FDT [3]	gelling of DC556 ([4]; 5% cellobiose ester in DC556)	gelling of Finsolv TN [4, 6]	gelling of Fluid AP [4, 7]	gelling of IPM ([4]; 5% cellobiose ester in IPM)	gelling of ISA ([4]; 5% cellobiose ester in ISA)	gelling of Mineral oil [4, 8]	gelling of Polydecene [4, 9]	gelling of DC556 ([4]; 10% cellobiose ester in DC556)	gelling of Finsolv TN [4, 10]	gelling of Fluid AP [4, 11]	gelling of IPM ([4]; 10% cellobiose ester in IPM)	gelling of ISA ([4]; 10% cellobiose ester in ISA)	gelling of Mineral oil [4, 12]	gelling of Polydecene [4, 13]	Observation [5, 15]	further results
CCCCCCCCC(=O)OCC1OC(OC2C(COC(=O)CCCCCCCC)OC(OC(=O)c3ccccc3)C(OC(=O)CCCCCCCC)C2OC(=O)CCCCCCCC)C(OC(=O)CCCCCCCC)C(OC(=O)CCCCCCCC)C1OC(=O)CCCCCCCC (mixture of isomers) [Ex 1.1]	55%	translucent 5	transparent/	Less soluble. No	64 °C	gel	g4	gel	g4	g22	gel	gel	gel	gel	gel	gel	gel	gel	gel	–	Observations ([5]; after 11 days at 37° C.): Slight crystal growth on surface after 11; Observation [5, 14]: No crystals after 12 days at 37 °C
CCCCCCCCC(=O)OCC1OC(OC2C(COC(=O)CCCCCCCC)OC(OC(=O)c3ccccc3)C(OC(=O)CCCCCCCC)C2OC(=O)CCCCCCCC)C(OC(=O)CCCCCCCC)C(OC(=O)CCCCCCCC)C1OC(=O)CCCCCCCC (mixture of isomers) [Ex 1.2]	38%	translucent 4	transparent/	Less soluble. No	67 °C	gel	sol	sg	sol	sg	sg	gel	gel	sol	gel	sol	gel	gel	gel	No crystals after 17 days.	–
CCCCCCCCC(=O)OCC1OC(OC2C(COC(=O)CCCCCCCC)OC(OC(=O)c3ccc4ccccc4c3)C(OC(=O)CCCCCCCC)C2OC(=O)CCCCCCCC)C(OC(=O)CCCCCCCC)C(OC(=O)CCCCCCCC)C1OC(=O)CCCCCCCC (mixture of isomers) [Ex 1.3]	58%	4	transparent	Less soluble. No	63 °C	gel	sol	gel	g4	gel	g22	gel	gel	g4	gel	g22	gel	g22	gel	–	Observations ([5]; after 12 days at 37° C.): No crystals after 12 days at 37 °C; Observation [5, 14]: No crystals after 12 days at 37 °C
CCCCCCCCC(=O)OCC1OC(OC2C(COC(=O)CCCCCCCC)OC(OC(C)=O)C(OC(=O)CCCCCCCC)C2OC(=O)CCCCCCCC)C(OC(=O)CCCCCCCC)C(OC(=O)CCCCCCCC)C1OC(=O)CCCCCCCC (mixture of isomers) [Ex 1.7]	52%	> 8	transparent	Less soluble. No	72 °C	gel	–	gel	–	sg	sg	gel	gel	–	gel	–	gel	gel	gel	No crystals after 17 days.	Observations ([5]; after 13 days at 37° C.): Slight crystal growth on surface after 13; Observation ([5]; REF2 to which the CHME structurant was added, after 13 days at 37° C.): Slight very fine crystal growth after 13
CCCCCCCCC(=O)OCC1OC(OC2C(COC(=O)CCCCCCCC)OC(OC(=O)CCCCCCCC)C(OC(=O)CCCCCCCC)C2OC(=O)CCCCCCCC)C(OC(=O)CCCCCCCC)C(OC(=O)CCCCCCCC)C1OC(=O)CCCCCCCC (mixture of isomers) [REF 3, reference compound]	46%	translucent 4	transparent/	Slightly less soluble	47 °C	–	–	–	–	–	–	–	–	–	–	–	–	–	–	–	Observations ([5]; after 1 day at 37° C.): Some crystal growth on gel surface after; Observations ([5]; after 9 days at 37° C.): Crystals throughout gel after 9 days at; Observations ([5]; after 13 days at 37° C.): 37° C.; More crystals throughout gel after
CCCCCCCCC(=O)OC[C@H]1O[C@@H](O[C@H]2[C@H](OC(=O)CCCCCCCC)[C@@H](OC(=O)CCCCCCCC)C(OC(=O)CCCCCCCC)O[C@@H]2COC(=O)CCCCCCCC)[C@H](OC(=O)CCCCCCCC)[C@@H](OC(=O)CCCCCCCC)[C@@H]1OC(=O)CCCCCCCC (stereo partly shown) [REF 2, cellobiose octanonanoate]	41%	slight haze 5	transparent/	Benchmark. Some	47 °C	–	–	–	–	–	–	–	–	–	–	–	–	–	–	Large amount of crystals throughout	% T Ex 1.12 ([1]; CHME = Ex 1.12, CHME:REF2 at stated weight ratio, total 10% in 60:40 Silkflo 364NF:DC245): 41%; % T Ex 1.13 ([1]; CHME = Ex 1.13, CHME:REF2 at stated weight ratio, total 10% in 60:40 Silkflo 364NF:DC245): 41%; Observation ([5]; 10% structurant in 60:40 Panalene L14E:DC245, after 7 days at 37° C.): Slight loss of clarity after 7 days; Observation ([5]; 10% structurant in 60:40 Panalene L14E:DC245, after 7 days at 37° C., listed as REF2): Slight loss of clarity after 7 days at 37 °C; Observation ([5]; 10% structurant in 60:40 Panalene L14E:DC245, after 8 days at 37° C.): Fine crystals on surface after 8; Observation ([5]; 10% structurant in 60:40 Panalene L14E:DC245, after 8 days at 37° C., listed as REF2): Fine crystals on surface after 8 days at 37 °C; Observation ([5]; 10% structurant in 60:40 Panalene L14E:DC245, after 9 days at 37° C.): Fine needle crystals throughout gel; Observation ([5]; 10% structurant in 60:40 Panalene L14E:DC245, after 9 days at 37° C., listed as REF2): Fine needle crystals throughout gel after 9; Observation ([5]; 10% structurant in 60:40 Panalene L14E:DC245, after 13 days at 37° C., listed as REF2): More needle crystals in gel bulk and crystal
